US9309242B2, “Substituted pyrido[2,3-b]pyrazines as FGFR kinase inhibitors” (priority 2011, dated 2016)

Assays:
FGFR2 (h) = FGFR2 (h) (Homo sapiens, UniProt P21802); assay: FGFR2 (enzymatic assay), TR-FRET; format: biochemical; conditions: enzymatic assay; read-out: FGFR 2 pIC50 (converted)
Method in brief: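 At low ATP (0.4 μM), enzyme activity of human FGFR2 (150 ng/ml) toward biotinylated Flt3 substrate (500 nM) was followed with test compound present. Reactions ran in 50 mM HEPES pH 7.5, 6 mM MnCl2, 1 mM DTT, 0.1 mM Na3VO4, 0.01% Triton-X-100, 1% DMSO.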

KDR (h) = KDR (h) (Homo sapiens, UniProt P35968); assay: KDR (VEGFR2) (enzymatic assay), TR-FRET; format: biochemical; conditions: read-out: VEGFR 2 (KDR) pIC50 (converted)
Chain of KDR (h) (P35968 20-1356): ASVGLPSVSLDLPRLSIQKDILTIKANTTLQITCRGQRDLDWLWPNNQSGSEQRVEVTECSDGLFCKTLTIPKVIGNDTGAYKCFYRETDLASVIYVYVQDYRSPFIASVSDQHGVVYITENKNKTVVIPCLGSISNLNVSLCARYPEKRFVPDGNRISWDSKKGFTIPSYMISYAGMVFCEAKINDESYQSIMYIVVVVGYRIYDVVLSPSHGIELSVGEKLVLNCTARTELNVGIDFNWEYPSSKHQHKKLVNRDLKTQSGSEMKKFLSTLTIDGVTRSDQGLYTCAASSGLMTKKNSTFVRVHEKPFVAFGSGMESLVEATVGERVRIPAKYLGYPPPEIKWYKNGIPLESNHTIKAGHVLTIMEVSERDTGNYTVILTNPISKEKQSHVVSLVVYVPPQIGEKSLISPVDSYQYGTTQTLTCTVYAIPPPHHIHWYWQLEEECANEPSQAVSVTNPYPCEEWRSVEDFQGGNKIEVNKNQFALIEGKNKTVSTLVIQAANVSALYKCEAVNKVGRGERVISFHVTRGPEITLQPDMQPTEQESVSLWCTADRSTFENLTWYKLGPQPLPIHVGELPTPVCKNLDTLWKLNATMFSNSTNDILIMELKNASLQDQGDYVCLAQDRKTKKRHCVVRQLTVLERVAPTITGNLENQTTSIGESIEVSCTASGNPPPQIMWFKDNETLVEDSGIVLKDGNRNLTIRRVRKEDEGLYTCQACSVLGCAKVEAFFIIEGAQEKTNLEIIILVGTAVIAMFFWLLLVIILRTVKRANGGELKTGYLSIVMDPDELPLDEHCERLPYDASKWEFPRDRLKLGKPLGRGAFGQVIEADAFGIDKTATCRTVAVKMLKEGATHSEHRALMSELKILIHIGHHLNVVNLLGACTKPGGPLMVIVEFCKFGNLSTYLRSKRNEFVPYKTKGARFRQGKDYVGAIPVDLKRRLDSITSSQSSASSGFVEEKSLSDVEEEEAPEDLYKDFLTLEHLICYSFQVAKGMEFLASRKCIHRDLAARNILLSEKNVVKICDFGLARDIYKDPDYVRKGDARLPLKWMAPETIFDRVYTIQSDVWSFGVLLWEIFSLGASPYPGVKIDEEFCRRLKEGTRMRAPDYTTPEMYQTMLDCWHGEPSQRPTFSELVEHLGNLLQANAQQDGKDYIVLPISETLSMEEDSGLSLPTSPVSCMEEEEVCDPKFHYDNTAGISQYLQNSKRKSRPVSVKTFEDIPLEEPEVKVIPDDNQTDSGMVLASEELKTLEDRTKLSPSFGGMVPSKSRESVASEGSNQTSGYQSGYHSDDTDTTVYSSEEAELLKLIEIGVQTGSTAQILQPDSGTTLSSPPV
Method in brief: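 3 μM ATP, 500 nM Btn-Flt3 substrate, 150 ng/ml kinase; HEPES pH 7.5 with MnCl2, DTT, vanadate, Triton; 1% DMSO. 120 min RT. Stop: EDTA + Eu-anti-P-Tyr + SA-XL-665, 60 min RT. Readout TR-FRET ex340/em620, 655 nm, RFU.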

[1] = target: T1, Ba/F3-FGFR1-transfected cells (Homo sapiens, UniProt P11362); assay: Ba/F3-FGFR1 (minus IL3) cellular proliferation assay, Alamar Blue; format: cell-based
T1 construct: BAF3-FGFR1 (MIN IL3) pIC50; other: minus IL3
T1 sequence (P11362 whole entry, change not shown): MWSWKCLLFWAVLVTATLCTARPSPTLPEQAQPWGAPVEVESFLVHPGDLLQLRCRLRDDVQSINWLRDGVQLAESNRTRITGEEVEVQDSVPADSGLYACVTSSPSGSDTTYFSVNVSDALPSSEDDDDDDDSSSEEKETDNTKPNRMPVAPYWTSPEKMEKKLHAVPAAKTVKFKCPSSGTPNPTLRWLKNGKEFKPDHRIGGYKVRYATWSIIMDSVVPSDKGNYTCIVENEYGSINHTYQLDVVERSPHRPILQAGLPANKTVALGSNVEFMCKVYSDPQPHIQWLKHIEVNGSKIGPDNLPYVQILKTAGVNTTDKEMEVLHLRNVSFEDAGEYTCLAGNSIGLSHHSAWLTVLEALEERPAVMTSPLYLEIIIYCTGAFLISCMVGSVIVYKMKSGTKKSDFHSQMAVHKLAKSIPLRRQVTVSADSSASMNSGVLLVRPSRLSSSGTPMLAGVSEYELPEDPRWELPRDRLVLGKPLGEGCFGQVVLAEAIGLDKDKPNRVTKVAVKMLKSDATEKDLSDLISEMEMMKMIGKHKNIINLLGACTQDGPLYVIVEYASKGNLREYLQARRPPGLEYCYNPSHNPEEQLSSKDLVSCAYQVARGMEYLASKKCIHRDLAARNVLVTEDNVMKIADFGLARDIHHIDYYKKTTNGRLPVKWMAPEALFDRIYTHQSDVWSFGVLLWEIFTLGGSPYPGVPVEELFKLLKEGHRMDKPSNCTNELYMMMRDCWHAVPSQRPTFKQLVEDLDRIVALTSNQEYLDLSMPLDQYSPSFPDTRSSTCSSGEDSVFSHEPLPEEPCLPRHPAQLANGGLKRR
Method in brief: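 Ba/F3-FGFR1 cells, 20000/well, RPMI-1640 + 10% FBS + 2 mM L-Gln; compound in DMSO; 24 h, 37 °C, 5% CO2; Alamar Blue 4 h; RFU ex 540/em 590.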

[2] = system: Ba/F3-FGFR3-transfected cells; assay: Ba/F3-FGFR3 (plus IL3) cellular proliferation assay, counterscreen with 10 ng/ml murine IL3; format: cell-based; conditions: plus IL3 (10 ng/ml murine IL3, counterscreen); read-out: BAF3-FGFR3 (PLUS IL3) pIC50 (converted)
Method in brief: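 FGFR3-Ba/F3, 20000 cells/well, RPMI-1640 + 10% FBS, no phenol red; cpd in DMSO; 24 h, 37° C/5% CO2. Alamar Blue 4 h, RFU ex540/em590. Counterscreen: + murine IL3 10 ng/ml.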

[3] = target: T2, Ba/F3-KDR-transfected cells (Homo sapiens, UniProt P35968); assay: Ba/F3-KDR (minus IL3) cellular proliferation assay, Alamar Blue; format: cell-based
T2 construct: BAF3-KDR (MIN IL3) pIC50; other: minus IL3
T2 sequence (P35968 whole entry, change not shown): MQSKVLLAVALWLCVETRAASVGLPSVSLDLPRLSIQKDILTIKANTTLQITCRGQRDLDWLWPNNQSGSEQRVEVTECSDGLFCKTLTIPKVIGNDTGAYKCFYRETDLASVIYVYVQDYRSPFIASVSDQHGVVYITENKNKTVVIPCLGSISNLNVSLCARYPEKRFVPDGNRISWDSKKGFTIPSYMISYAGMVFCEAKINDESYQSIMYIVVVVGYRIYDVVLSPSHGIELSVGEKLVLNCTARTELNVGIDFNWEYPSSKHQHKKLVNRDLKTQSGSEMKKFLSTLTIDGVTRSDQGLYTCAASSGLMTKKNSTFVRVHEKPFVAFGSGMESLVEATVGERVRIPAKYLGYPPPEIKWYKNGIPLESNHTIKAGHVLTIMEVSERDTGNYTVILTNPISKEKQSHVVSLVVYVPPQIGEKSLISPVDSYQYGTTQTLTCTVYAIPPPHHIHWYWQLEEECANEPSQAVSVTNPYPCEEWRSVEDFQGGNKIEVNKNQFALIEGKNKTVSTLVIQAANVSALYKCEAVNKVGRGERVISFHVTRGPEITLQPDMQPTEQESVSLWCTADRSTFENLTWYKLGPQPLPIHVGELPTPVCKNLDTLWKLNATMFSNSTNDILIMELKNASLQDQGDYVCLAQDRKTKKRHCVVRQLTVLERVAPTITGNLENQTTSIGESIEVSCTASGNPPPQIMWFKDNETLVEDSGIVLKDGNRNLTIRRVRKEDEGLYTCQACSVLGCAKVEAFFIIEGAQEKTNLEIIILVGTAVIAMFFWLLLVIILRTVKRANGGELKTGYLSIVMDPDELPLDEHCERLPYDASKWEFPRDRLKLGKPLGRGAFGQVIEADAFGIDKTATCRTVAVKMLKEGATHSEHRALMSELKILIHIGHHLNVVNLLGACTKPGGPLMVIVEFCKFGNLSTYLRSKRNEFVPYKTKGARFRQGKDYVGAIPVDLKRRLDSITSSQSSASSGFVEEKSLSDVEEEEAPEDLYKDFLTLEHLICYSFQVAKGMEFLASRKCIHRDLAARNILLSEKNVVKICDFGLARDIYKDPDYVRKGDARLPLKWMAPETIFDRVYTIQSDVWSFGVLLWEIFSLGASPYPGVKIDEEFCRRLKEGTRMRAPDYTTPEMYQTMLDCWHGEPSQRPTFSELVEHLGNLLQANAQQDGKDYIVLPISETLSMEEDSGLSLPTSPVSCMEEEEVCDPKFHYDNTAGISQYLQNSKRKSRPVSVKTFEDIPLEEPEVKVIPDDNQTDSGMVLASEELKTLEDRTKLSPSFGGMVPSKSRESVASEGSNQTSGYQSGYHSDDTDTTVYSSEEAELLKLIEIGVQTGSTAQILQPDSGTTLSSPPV
Method in brief: (§1)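 Read-out: resazurin-based Alamar Blue fluorescence (ex. 540, em. 590 nm) after 4 h. Before that, cells were incubated with compound for 24 h at 37° C. The counterscreen ran identically but with IL3 supplemented.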

[4] = system: Ba/F3-KDR-transfected cells; assay: Ba/F3-KDR (plus IL3) cellular proliferation assay, counterscreen with 10 ng/ml murine IL3; format: cell-based; conditions: plus IL3 (10 ng/ml murine IL3, counterscreen); read-out: BAF3-KDR (PLUS IL3) pIC50 (converted)
Method in brief: as §1

[5] = target: Ba/F3-FGFR4-transfected cells (Homo sapiens, UniProt P22455); assay: Ba/F3-FGFR4 cellular proliferation assay, Alamar Blue; format: cell-based
Chain of Ba/F3-FGFR4-transfected cells (P22455 whole entry, change not shown): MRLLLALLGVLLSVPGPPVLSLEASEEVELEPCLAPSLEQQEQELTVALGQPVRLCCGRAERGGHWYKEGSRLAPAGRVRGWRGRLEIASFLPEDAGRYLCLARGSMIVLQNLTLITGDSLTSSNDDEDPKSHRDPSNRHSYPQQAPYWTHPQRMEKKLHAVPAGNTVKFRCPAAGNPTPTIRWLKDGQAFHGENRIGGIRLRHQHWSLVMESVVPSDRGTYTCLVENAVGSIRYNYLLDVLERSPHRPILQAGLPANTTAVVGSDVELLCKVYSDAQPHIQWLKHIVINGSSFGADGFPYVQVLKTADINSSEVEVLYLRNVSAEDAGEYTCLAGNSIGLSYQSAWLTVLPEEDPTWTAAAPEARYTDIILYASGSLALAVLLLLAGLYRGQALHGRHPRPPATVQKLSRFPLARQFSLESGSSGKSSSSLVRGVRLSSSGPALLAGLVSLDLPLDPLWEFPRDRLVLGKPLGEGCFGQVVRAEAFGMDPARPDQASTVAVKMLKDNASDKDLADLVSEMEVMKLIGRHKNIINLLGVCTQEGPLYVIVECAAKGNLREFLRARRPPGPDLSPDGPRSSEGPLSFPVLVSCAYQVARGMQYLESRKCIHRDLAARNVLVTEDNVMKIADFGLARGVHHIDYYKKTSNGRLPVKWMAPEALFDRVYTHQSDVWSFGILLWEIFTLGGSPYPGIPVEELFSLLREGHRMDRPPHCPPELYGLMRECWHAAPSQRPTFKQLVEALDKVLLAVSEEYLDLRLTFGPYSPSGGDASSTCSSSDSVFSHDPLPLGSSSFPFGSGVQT
Method in brief: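 Fluorescence read-out (ex. 540 nm, em. 590 nm) of resazurin-based Alamar Blue after 4 h, following 24 h compound exposure of Ba/F3-FGFR4-transfected cells (20000/well) at 37° C, 5% CO2.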

Chain of FGFR2 (h) (P21802 22-821): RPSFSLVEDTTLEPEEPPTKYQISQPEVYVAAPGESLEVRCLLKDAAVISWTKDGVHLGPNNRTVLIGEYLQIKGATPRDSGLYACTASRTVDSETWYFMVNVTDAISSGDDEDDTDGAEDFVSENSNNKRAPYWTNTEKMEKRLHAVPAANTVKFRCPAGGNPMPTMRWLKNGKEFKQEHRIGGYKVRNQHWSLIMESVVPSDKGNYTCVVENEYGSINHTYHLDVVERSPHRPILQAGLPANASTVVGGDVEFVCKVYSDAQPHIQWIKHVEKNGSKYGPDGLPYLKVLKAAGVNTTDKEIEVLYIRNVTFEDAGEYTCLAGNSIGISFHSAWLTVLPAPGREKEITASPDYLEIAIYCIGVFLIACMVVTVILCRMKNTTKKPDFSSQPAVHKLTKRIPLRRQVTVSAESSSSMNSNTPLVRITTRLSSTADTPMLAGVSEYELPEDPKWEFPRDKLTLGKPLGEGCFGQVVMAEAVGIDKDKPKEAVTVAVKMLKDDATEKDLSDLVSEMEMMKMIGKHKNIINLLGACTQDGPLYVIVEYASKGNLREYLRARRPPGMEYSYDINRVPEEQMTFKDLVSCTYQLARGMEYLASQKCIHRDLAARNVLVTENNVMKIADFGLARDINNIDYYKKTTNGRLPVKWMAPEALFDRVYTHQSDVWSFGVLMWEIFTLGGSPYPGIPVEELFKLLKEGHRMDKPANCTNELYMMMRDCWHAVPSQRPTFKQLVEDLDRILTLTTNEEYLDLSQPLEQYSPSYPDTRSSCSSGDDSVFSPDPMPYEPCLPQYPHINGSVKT

Row | Structure (SMILES) | IC50 (FGFR2 (h)) [nM] | IC50 (KDR (h)) [nM] | BAF3-FGFR1 (MIN IL3) pIC50 [1] | IC50 [2] [nM] | BAF3-KDR (MIN IL3) pIC50 [3] | IC50 [4] [nM] | BAF3-FGFR4 pIC50 [5]
1 | COc1cc(OC)c(F)c(N(CC(C)(C)O)c2ccc3ncc(-c4cnn(C)c4)nc3n2)c1F [Compound 278] | 4.17 | 15.8 | 7.45 | > 10000 | 5.92 | > 10000 | 7.11
2 | CCn1/c(=N/c2c(F)c(OC)cc(OC)c2F)ccc2ncc(-c3cnn(C)c3)nc21 [Compound 257] | 1.35 | 3.16 | 8.58 | > 10000 | 6.80 | > 10000 | 7.98
3 | COc1cc(OC)c(F)c(N(Cc2noc(C)n2)c2ccc3ncc(-c4cnn(C)c4)nc3n2)c1 [Compound 297] | 1.78 | 16.2 | 7.70 | > 10000 | 6.08 | > 10000 | 6.99
4 | COc1cc(OC)c(F)c(N(Cc2ncc[nH]2)c2ccc3ncc(N4CCOCC4)nc3n2)c1 [Compound 291] | 1.55 | 89.1 | 8.03 | > 10000 | 5.68 | > 10000 | 7.08
5 | COc1cc(/N=c2\ccc3ncc(-c4cnn(CC(C)(C)O)c4)nc3n2CC2CCC(=O)N2)c(F)c(OC)c1 (centres unmarked) [Compound 286] | 2.04 | 11 | 7.07 | > 10000 | 6.23 | > 10000 | 6.69
6 | CNCCn1ccnc1CN(c1ccc2ncc(-c3cnn(C)c3)nc2n1)c1cc(OC)cc(OC)c1F [Compound 289] | 8.51 | 97.7 | 6.66 | > 10000 | 5.28 | > 10000 | 6.07
7 | COc1cc(OC)c(F)c(N(CC(O)COC(C)C)c2ccc3ncc(-c4cnn(CC(O)COC(C)C)c4)nc3n2)c1 (single isomer, unassigned) [Compound 252] | 5.37 | 49 | 7.14 | > 10000 | 5.67 | > 10000 | 6.95
8 | COc1cc(/N=c2\ccc3ncc(-c4cnn(C)c4)nc3n2CC2CC(O)C(=O)N2)c(F)c(OC)c1 (centres unmarked) [Compound 270] | 2.09 | 6.46 | 7.12 | > 10000 | 5.56 | > 10000 | 6.40
9 | COc1cc(OC)c(F)c(/N=c2\ccc3ncc(-c4cnn(C)c4)nc3n2CC2CC2)c1F (single isomer, unassigned) [Compound 267] | 4.27 | 12.6 | 7.98 | > 10000 | 6.37 | > 10000 | 7.55
10 | COc1cc(OC)cc(N(Cc2nnc(NCCO)o2)c2ccc3ncc(-c4cnn(C)c4)nc3n2)c1 [Compound 282] | 19.1 | 661 | <5 | > 10000 | <5 | > 10000 | <5
11 | COc1cc(OC)cc(N(c2ccc3ncc(-c4cnn(C)c4)nc3n2)C(C)c2ncc[nH]2)c1 (centres unmarked) [Compound 280] | 2.04 | 31.6 | 8.64 | > 10000 | 6.03 | > 10000 | 7.97
12 | COc1cc(OC)c(F)c(N(CC2CC(O)C(=O)N2)c2ccc3ncc(-c4cnn(C)c4)nc3n2)c1 (centres unmarked) [Compound 269] | 3.24 | 74.1 | 6.72 | > 10000 | 5.12 | > 10000 | 6.29
13 | COc1cc(OC)c(C)c(N(Cc2ncc[nH]2)c2ccc3ncc(-c4cnn(C)c4)nc3n2)c1 [Compound 273] | 3.8 | 20.4 | 8.44 | > 10000 | 6.44 | > 10000 | 7.60
14 | COc1cc(OC)c(F)c(N(CC(=O)N2CCNCC2)c2ccc3ncc(-c4cnn(C)c4)nc3n2)c1 [Compound 262] | 7.24 | 240 | 6.51 | > 10000 | 5.06 | > 10000 | 5.63
15 | CNC(=O)c1cc(F)cc(N(Cc2ncc[nH]2)c2ccc3ncc(-c4cnn(C)c4)nc3n2)c1 [Compound 261] | ~2.82 | 10.2 | 7.61 | > 10000 | 6.01 | > 10000 | 6.77
16 | COc1cc(OC)c(F)c(N(Cc2ncc[nH]2)c2ccc3ncc(-c4cnn(C5COC5)c4)nc3n2)c1 [Compound 253] | 1.82 | 12 | 8.61 | > 10000 | 6.32 | > 10000 | 7.90
17 | COc1cc(OC)c(F)c(N(c2ccc3ncc(-c4cnn(C)c4)nc3n2)C(C)c2ncc[nH]2)c1 (centres unmarked) [Compound 287] | 3.09 | 17.4 | 8.87 | > 10000 | 6.62 | > 10000 | 8.08
